test system: LSD1:CoREST complex; experiment: Pull-down of HDAC1/CoREST/LSD1 complex with LSD1 antibody, Western blot for CoREST; assay type: cell-based; conditions: primary feline cardiomyocytes, 3 h, 1 μM; LSD1 antibody pull-down
Description: Co-immunoprecipitation analysis for LSD1:CoREST complex following treatment from primary rat cardiomyocytes with 5 μM and 1 μM C1 was performed as described above. Lysates pulled down with LSD1 antibody and western blotted for CoREST (n=2).

Compound	association between LSD1 and CoREST
Verlindamycin tetrahydrochloride [Compound 2d, reference compound]	Only compound C1 disrupted the association

test system: not listed separately; experiment: Solubility noted in the LSD1 screen; assay type: physicochemical; conditions: LSD1 screen at 10 μM

solubility (reason why % inhibition was not determined)	Compound
Not Determined (Insolube)	CSc1ccc(Oc2cccc(Cl)c2CNc2nnc(N)[nH]2)cc1 [Compound 5l, N^3-(2-chloro-6-(4-((methyl)thio)phenoxy)benzyl)-4H-1,2,4-triazole-3,5-diamine]
Not Determined (Insolube)	Nc1nnc(NCc2c(Cl)cccc2Oc2ccc(Br)cc2Br)[nH]1 [Compound 5j]
Not Determined (Insoluble)	Nc1nnc(NCc2c(Cl)cccc2Oc2ccc(SC(F)(F)F)cc2)[nH]1 [Compound 5i, N^3-(2-chloro-6-(4-((trifluoromethyl)thio)phenoxy)benzyl)-4H-1,2,4-triazole-3,5-diamine]

biological target: T1, human recombinant LSD1 (Homo sapiens, UniProt O60341); experiment: LSD1 inhibitor screening assay (Cayman Chemical kit, fluorometric); assay type: biochemical; conditions: 10 μM compound; Chembridge analogues table
T1 construct: purchased Cayman Chemical Item #700120
Description: LSD1 Inhibitor Screening Assay:
In short, 10 μM of compound was combined with the fluorometic substrate 10-acetyl-3,7-dihydroxyphenoxazine, horseradish peroxidase, human recombinant LSD1, and 100 μM dimethylated lysine at residue 4 [ARTK(diMe)[…]] (Seq. ID No: 1) for 30 mins at 37° C. Plates were read using an excitation wavelength of 535 nm and an emission wavelength of 590 nm with a SpectraMax M5 Microplate reader.

Compound	inhibition at 10 µM
COc1cccc(NCc2nn[nH]n2)c1OCc1ccc(F)cc1Cl [Compound C5, N-((2H-tetrazol-5-yl)methyl)-2-((2-chloro-4-fluorobenzyl)oxy)-3-methoxyaniline]	-3.1 ± 7.8%
Clc1ccc(CNc2nc[nH]n2)c(Cl)c1 [Compound C4, N-(2,4-dichlorobenzyl)-1H-1,2,4-triazol-3-amine]	2.2 ± 6.9%
Fc1ccccc1COc1ccc(Cl)cc1CNc1nc[nH]n1 [Compound C3, N-(5-chloro-2-((2-fluorobenzyl)oxy)benzyl)-1H-1,2,4-triazol-3-amine]	30.6 ± 6.4%
Fc1ccc(COc2ccc(Cl)cc2CNc2nc[nH]n2)cc1 [Compound C2, N-(5-chloro-2-((4-fluorobenzyl)oxy)benzyl)-1H-1,2,4-triazol-3-amine]	27.7 ± 9%

The remaining lines, values ahead:

inhibition at 10 µM	Compound
30.9 ± 7.7%	Clc1cccc(Cl)c1CNc1nc[nH]n1 [Compound C9, N-(2,6-dichlorobenzyl)-1H-1,2,4-triazol-3-amine]
4.6 ± 6.9%	Clc1ccccc1CNc1nc[nH]n1 [Compound C6, N-(2-chlorobenzyl)-1H-1,2,4-triazol-3-amine]
20.8 ± 5%	CCOc1ccc(Cl)cc1CNc1nn[nH]n1 [Compound C14, N-(5-chloro-2-ethoxybenzyl)-2H-tetrazol-5-amine]
22.1 ± 7.3%	COc1cccc(CNc2nn[nH]n2)c1OCc1ccccc1Cl [Compound C12, N-(2-((2-chlorobenzyl)oxy)-3-methoxybenzyl)-2H-tetrazol-5-amine]
18.1 ± 8.2%	COc1cccc(CNc2nnc[nH]2)c1OCc1ccccc1Cl [Compound C7, N-(2((2-chlorobenzyl)oxy)-3-methoxybenzyl)-4H-1,2,4-triazo1-3-amine]
30.8 ± 5.7%	COc1ccc(Cl)cc1CNc1nn[nH]n1 [Compound C13, N-(5-chloro-2-methoxybenzyl)-2H-tetrazol-5-amine]
-3 ± 12.7%	CCOc1cc(Cl)cc(CNc2nc[nH]n2)c1 [Compound C10, N-(3-chloro-5-ethoxybenzyl)-1H-1,2,4-triazol-3-amine]
6.9 ± 7.5%	Cc1ccc(COc2ccc(Cl)cc2CNc2nn[nH]n2)cc1 [Compound C8, N-(5-chloro-2-((4-methylbenzyl)oxy)benzyl)-2H-tetrazol-5-amine]
19.9 ± 8.4%	Clc1ccc(OCc2ccccc2)c(CNc2nn[nH]n2)c1 [Compound C11, N-(2-(benzyloxy)-5-chlorobenzyl)-2H-tetrazol-5-amine]

same assay, conditions: 10 μM compound; synthetic analogues of C1, Table 2

Compound	inhibition at 10 µM
Cc1cc(C)cc(Oc2cccc(Cl)c2CNc2nnc(N)[nH]2)c1 [Compound 5g, N^3-(2-chloro-6-(3,5-dimethylphenoxy)benzyl)-4H-1,2,4-triazole-3,5-diamine]	67.9 ± 6.5%
Cc1ccc(Oc2cccc(Cl)c2CNc2nnc(N)[nH]2)cc1 [Compound 5b, N^3-(2-chloro-6-(p-tolyloxy)benzyl)-4H-1,2,4-triazole-3,5-diamine]	59.3 ± 6.1%
COc1cccc(Oc2cccc(Cl)c2CNc2nnc(N)[nH]2)c1 [Compound 5d, N^3-(2-chloro-6-(3-methoxyphenoxy)benzyl)-4H-1,2,4-triazole-3,5-diamine]	44.6 ± 5.1%
Cc1ccccc1Oc1cccc(Cl)c1CNc1nnc(N)[nH]1 [Compound 5q]	74.2 ± 5.2%
Nc1nnc(NCc2c(Cl)cccc2Oc2ccc(Br)cc2C(F)(F)F)[nH]1 [Compound 5k, N^3-(2-(4-bromo-2-(trifluoromethyl)phenoxy)-6-chlorobenzyl)-4H-1,2,4-triazole-3,5-diamine]	67.8 ± 5.4%
Cc1ccc(C(C)C)c(Oc2cccc(Cl)c2CNc2nnc(N)[nH]2)c1 [Compound 5c, N^3-(2-chloro-6-(2-isopropyl-5-methylphenoxy)benzyl)-4H-1,2,4-triazole-3,5-diamine]	56.3 ± 3.2%
CC(C)(C)c1ccc(Oc2cccc(Cl)c2CNc2nnc(N)[nH]2)cc1 [Compound 5f, N^3-(2-(4-(tert-butyl)phenoxy)-6-chlorobenzyl)-4H-1,2,4-triazole-3,5-diamine]	58.2 ± 8.8%
Nc1nnc(NCc2ccccc2)[nH]1 [Compound 5e]	41 ± 17.4%
Nc1nnc(NCc2c(Cl)cccc2Oc2cc(C(F)(F)F)cc(C(F)(F)F)c2)[nH]1 [Compound 5h, N^3-(2-(3,5-bis(trifluoromethyl)phenoxy)-6-chlorobenzyl)-4H-1,2,4-triazole-3,5-diamine]	44.9 ± 4.6%
COc1cc(OC)cc(Oc2cccc(Cl)c2CNc2nnc(N)[nH]2)c1 [Compound 5n, N^3-(2-chloro-6-(3,5-dimethoxyphenoxy)benzyl)-4H-1,2,4-triazole-3,5-diamine]	63.3 ± 8.6%
Nc1nnc(NCc2c(Cl)cccc2Oc2ccc3c(c2)OCO3)[nH]1 [Compound 5r, N^3-(2-(benzo[d][1,3]dioxol-5-yloxy)-6-chlorobenzyl)-4H-1,2,4-triazole-3,5-diamine]	65.8 ± 6.4%
COc1ccc(Sc2cccc(Cl)c2CNc2nnc(N)[nH]2)cc1OC [Compound 5t, N^3-(2-chloro-6-((3,4-dimethoxyphenyl)thio)benzyl)-4H-1,2,4-triazole-3,5-diamine]	53.2 ± 1.7%
COc1cc(C)ccc1Oc1cccc(Cl)c1CNc1nnc(N)[nH]1 [Compound 5m, N^3-(2-chloro-6-(2-methoxy-4-methylphenoxy)benzyl)-4H-1,2,4-triazole-3,5-diamine]	84.7 ± 3.2%

Further lines, results first:

inhibition at 10 µM	Compound
73.8 ± 4.4%	CCOc1cc(C)ccc1Oc1ccccc1CNc1nc(N)n[nH]1 [Compound M10]
78.1 ± 2.6%	Nc1n[nH]c(NCc2ccccc2Oc2cccc3ccccc23)n1 [Compound M9]
66.8 ± 4.4%	Nc1n[nH]c(NCc2c(Cl)cccc2Oc2ccc(-c3ccccc3)cc2)n1 [Compound M3]
95.3 ± 2.8%	Nc1n[nH]c(NCc2c(Cl)cccc2Oc2cccc3ccccc23)n1 [Compound M1]
77.7 ± 2.9%	CCOc1cc(C)ccc1Oc1cccc(Cl)c1CNc1nc(N)n[nH]1 [Compound M4]
76.4 ± 2.2%	Nc1n[nH]c(NCc2c(Cl)cccc2Oc2ccc(F)cc2)n1 [Compound M6]
73.1 ± 1.6%	COc1cccc(Cl)c1CNc1nc(N)n[nH]1 [Compound H1]
67.6 ± 3.7%	Nc1n[nH]c(NCc2c(Cl)cccc2Oc2cccc3cc[nH]c23)n1 [Compound M5]
56 ± 4.1%	COc1cc(Oc2ccccc2CNc2nc(N)n[nH]2)cc(OC)c1OC [Compound M8]
67.6 ± 6.2%	COc1cc(Oc2cccc(Cl)c2CNc2nc(N)n[nH]2)cc(OC)c1OC [Compound M7]

test system: murine myocardium; experiment: Infarct area in myocardial cross-section after induced myocardial ischemia; assay type: in vivo, mouse; conditions: 10 mg/kg; versus vehicle
Text: In the Langendorff preparation, the heart is removed with preservation of a portion of the afferent and efferent blood vessels; it is then perfused in a reverse fashion via the aorta, usually with a nutrient rich, oxygenated solution (e.g. Krebs-Henseleit solution or Tyrode's solution). The backwards pressure causes the aortic valve to shut, forcing the solution into the coronary vessels, which normally supply the heart tissue with blood. This feeds nutrients and oxygen to the cardiac muscle, allowing it to continue beating for several hours after its removal from the animal. This is a useful preparation because it allows the addition of drugs (via the perfusate) and observation of their effect on the heart without the complications involved with in vivo experimentation, such as neuronal and hormonal effects from living animal (Broadley, K. J., 1970). A pressure transducer is inserted to measure a number of cardiac performance parameters including left ventricular developed pressure, left ventricular end diastolic pressure, heart rate, etc. […]
The compounds described herein may be used to protect the myocardium from injury following an ischemic event. […] Results are expressed as a percentage of the area of infarct with respect to total surface area. […]

Compound	infarct area as a percentage of the total left ventricular area
Verlindamycin tetrahydrochloride [Compound 2d, reference compound]	significantly more effective than treatment with vehicle

test system: mouse heart; experiment: Langendorff isolated heart model, ischemia/reperfusion; conditions: 1 hour pre-treatment with 1.0 μM; versus vehicle
Text: In the Langendorff preparation, the heart is removed with preservation of a portion of the afferent and efferent blood vessels; it is then perfused in a reverse fashion via the aorta, usually with a nutrient rich, oxygenated solution (e.g. Krebs-Henseleit solution or Tyrode's solution). The backwards pressure causes the aortic valve to shut, forcing the solution into the coronary vessels, which normally supply the heart tissue with blood. This feeds nutrients and oxygen to the cardiac muscle, allowing it to continue beating for several hours after its removal from the animal. This is a useful preparation because it allows the addition of drugs (via the perfusate) and observation of their effect on the heart without the complications involved with in vivo experimentation, such as neuronal and hormonal effects from living animal (Broadley, K. J., 1970). A pressure transducer is inserted to measure a number of cardiac performance parameters including left ventricular developed pressure, left ventricular end diastolic pressure, heart rate, etc. Following the Langendorff procedure, the myocardium is cut into cross sections, and infarcted tissue is identified by the inability to take up stain; thus infarcted areas appear white, while healthy areas appear red.
The compounds described herein may be used to protect the myocardium from injury following an ischemic event. In FIG. 6, a mouse heart was subjected to ischemia by ligation of the afferent vessel in a Langendorff preparation, as described above. Prior to the induction of ischemia, hearts were either pre-treated with vehicle, verlindamycin or C1. […] In FIG. 8, the results of an experiment to measure infarcted tissue in a myocardial cross-section are shown. Results are expressed as a percentage of the area of infarct with respect to total surface area. […] The HDAC1/CoREST/LSD1 complex was pulled down with an LSD1 antibody and a Western blot for CoREST was performed.

Compound	left ventricular end diastolic pressure
Verlindamycin tetrahydrochloride [Compound 2d, reference compound]	reduced to near-normal levels

same assay, conditions: pre-treatment before ischemia; after reperfusion; versus vehicle

Compound	left ventricular developed pressure
Verlindamycin tetrahydrochloride [Compound 2d, reference compound]	restored to nearly normal levels
